Test system: Human epidermal keratinocytes (HaCaT cells)
Assay: "scrape" in vitro wound healing model (wound closure of a scraped confluent monolayer)
Type: cell-based
Conditions: for wound width, day 1: day 1 (24 hours); for wound width, day 2: day 2 (48 hours)
Protocol: The “scrape” in vitro wound healing model has been previously presented in the literature (Li, F. et al., 2000, Exp Cell Res., 258(2): 245-253; Firth J. D. et al., 2004, J. Invest. Dermatol., 122(1): 222-231). In this model a scrape across a confluent monolayer of cells is used to simulate a wound and the effect of agents added to serum free media is tested on the rate of closure of the gap.
Human epidermal keratinocytes (HaCaT cells) were plated at a density of 1×10^5 cells/well into Nunc 6 well plates in Dulbecco's Modified Eagle Medium (DMEM) containing 10% fetal bovine serum (FBS) benzyl penicillin (100 IU/ml), streptomycin […] confluence (2 days) monolayers were “wounded” with a 1 ml pipette tip (0.5 mm width) by scraping the tip across the centre of the well. The wells were then washed 5 times with DMEM. One ml of either DMEM with 10% FBS, DMEM or DMEM with: 3, 6, 12 or 24 mgs/ml bovine fetuin A (Sigma), 6.25, 12.5, 25 or 50 μg/ml peptide TGF peptide antagonist (Corresponding to residues 41-65 of TGFβ-1-3:—Huang S. S. et al., 1997, Journal of Biological Chemistry, 272(43):27155-27159) and 2.1, 4.2, 8.4 and 16.8 mg/ml bovine thyroglobulin was added to each well (2 replicates per plate, 4 plates). These concentrations were calculated to have equivalent antagonistic effect on the binding of TGFβ-1 to its receptor for each of the compounds. All DMEM solutions used contained benzyl penicillin (100 IU/ml), streptomycin ([…]) and fungizone (250 mg/ml). A mark was placed on the base of each well at right angles to the “wound” and the wound was photographed at the intersection of the mark and wound with a Nikon EOS 300 digital camera fitted to a JenaMed (Ziess Jena) inverted microscope (50×). Images were taken at the same positions 24 and 48 hours after addition of the treatment media. Digital images were analysed with Image Pro (Media Cybernetics) image analysis software and an image of a Nikon stage micrometer was used for calibration of length measurements. Results were summarized as the wound width after 24 and 48 hours.

[1] = 2.1 mg/ml bovine thyroglobulin in DMEM
[2] = 4.2 mg/ml bovine thyroglobulin in DMEM
[3] = 8.4 mg/ml bovine thyroglobulin in DMEM
[4] = 16.8 mg/ml bovine thyroglobulin in DMEM
[5] = 6.25 μg/ml TGF peptide antagonist in DMEM
[6] = 12.5 μg/ml TGF peptide antagonist in DMEM
[7] = 25 μg/ml TGF peptide antagonist in DMEM
[8] = 50 μg/ml TGF peptide antagonist in DMEM

Thyroglobulin: bovine thyroglobulin, comparator that binds members of the TGF-β superfamily
wound width, day 0 [1]: 0.6587 | wound width, day 1 [1]: 0.413 | wound width, day 2 [1]: 0.4941 | wound width, day 0 [2]: 0.6428 | wound width, day 1 [2]: 0.5772 | wound width, day 2 [2]: 0.5393 | wound width, day 0 [3]: 0.6669 | wound width, day 1 [3]: 0.5742 | wound width, day 2 [3]: 0.5909 | wound width, day 0 [4]: 0.6152 | wound width, day 1 [4]: 0.5981 | wound width, day 2 [4]: 0.6132

TGFB-R inhibitor: peptide TGF peptide antagonist corresponding to residues 41-65 of TGFβ-1-3 (Huang S. S. et al., 1997) (ANFCLGPCPYIWSLDTQYSKVLALY; Transforming growth factor beta-1; UniProt P01137 319-343, looked up, fragment)
wound width, day 0 [5]: 0.6779 | wound width, day 1 [5]: 0.5473 | wound width, day 2 [5]: 0.4866 | wound width, day 0 [6]: 0.6751 | wound width, day 1 [6]: 0.5515 | wound width, day 2 [6]: 0.4839 | wound width, day 0 [7]: 0.6643 | wound width, day 1 [7]: 0.5341 | wound width, day 2 [7]: 0.4688 | wound width, day 0 [8]: 0.6371 | wound width, day 1 [8]: 0.554 | wound width, day 2 [8]: 0.498
